# Structures can show the parent of a compound that is named as a salt.
# Biological target: T1, steroid 17α-hydroxylase and/or steroid C17-20 lyase (Rattus norvegicus, UniProt P11715)
# T1 construct: the testis of rats (SD, male) was homogenized and centrifuged to obtain microsome; from tissue; host or cells: rat (SD, male) testis microsomes
# T1 sequence (P11715 1-507): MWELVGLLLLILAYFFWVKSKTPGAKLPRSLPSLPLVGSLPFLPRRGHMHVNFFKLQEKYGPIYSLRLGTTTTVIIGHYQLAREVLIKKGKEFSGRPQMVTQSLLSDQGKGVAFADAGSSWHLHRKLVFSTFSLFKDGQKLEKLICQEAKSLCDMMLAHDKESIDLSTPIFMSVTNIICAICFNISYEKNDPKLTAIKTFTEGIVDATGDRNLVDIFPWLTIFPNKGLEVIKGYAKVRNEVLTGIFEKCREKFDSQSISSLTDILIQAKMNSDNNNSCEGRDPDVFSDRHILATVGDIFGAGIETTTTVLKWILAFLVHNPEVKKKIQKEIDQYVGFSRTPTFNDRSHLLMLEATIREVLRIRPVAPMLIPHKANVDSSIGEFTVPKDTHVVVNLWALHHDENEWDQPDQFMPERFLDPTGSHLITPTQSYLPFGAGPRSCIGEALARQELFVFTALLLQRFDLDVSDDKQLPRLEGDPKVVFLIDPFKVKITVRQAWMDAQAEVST
# Experiment: Measurement of steroid 17α-hydroxylase and/or steroid C17-20 lyase inhibitory activity (rat testis microsome, HPLC)
# Assay type: biochemical
# Conditions: Enzyme source: rat testis microsome; test compound 300 nM; substrate 25 μM 17α-hydroxyprogesterone; NADPH 500 μM; 20 minutes at 37° C.
# Protocol: An experiment was carried out according to the method of T. Sergejew and R. W. Hartmann (J. Enzyme Inhibition, 8, 113(1994)). That is, the testis of rats (SD, male) was homogenized and centrifuged to obtain microsome. […] After the addition of 100 μl of microsome protein solution, the protein contentration was adjusted to 0.1 mg/ml by 50 mM phosphate buffer solution (pH 7.4), 140 μl of 125 nmol NADPH solution, and 10 μl of 6.25 nmol 17α-hydroxyprogesterone, the mixture was incubated for 20 minutes at 37° C. 50 μl of 1N hydrochloric acid and 1000 μl of ethyl acetate were sequentially added to the mixture. The mixture was shaken and centrifuged. The ethyl acetate layer was washed with 250 μl of 50 mM phosphate buffer solution (pH 7.4) and 50 μl of 1N hydrochloric acid, centrifuged, and concentrated. The concentrate was dissolved in 100 μl of acetonitrile. 10 μl of this solution was charged to high performance liquid chromatography. The amounts of the substrate and the product (androstenedione and testosterone) were measured to calculate the enzyme activity. In this experiment, a sample without the test compound was provided as a control group. Steroid 17α-hydroxylase and/or steroid C17-20-lyase inhibitory activity (%) was calculated by the following equation (1) using the amounts of the substrate and the product obtained.
SMILES,inhibition at 0.3 µM [%],Inhibitory activity (%)
"COc1ccc2c(-c3cccnc3)csc2c1 [Example 2, 3-[6-methoxybenzo[b]thiophen-3-yl]pyridine hydrochloride]",89,–
"COc1ccc(-c2ccc3c(-c4ccncc4)csc3c2)cc1 [Example 7, 4-[6-(4-methoxyphenyl)benzo[b]thiophen-3-yl]pyridine]",60,–
"Oc1ccc2c(-c3cccnc3)csc2c1 [Example 8, 3-(3-pyridyl)benzo[b]thiophen-6-ol]",59,–
"CC(=O)Oc1ccc2c(-c3cccnc3)csc2c1 [Example 9, 3-(3-pyridyl)benzo[b]thiophen-6-yl=acetate]",–,63
"O=C(Oc1ccc2c(-c3cccnc3)csc2c1)c1ccccc1 [Example 10, 3-(3-pyridyl)benzo[b]thiophen-6-yl=benzoate]",–,71
"c1ccc(COc2ccc3c(-c4cccnc4)csc3c2)cc1 [Example 11, 3-(6-benzyloxybenzo[b]thiophen-3-yl)pyridine hydrochloride]",71,–
"CC(C)Oc1ccc2c(-c3cccnc3)csc2c1 [Example 12, 3-(6-isopropyloxybenzo[b]thiophen-3-yl)pyridine hydrochloride]",100,–
"Fc1ccc(-c2ccc3c(-c4cccnc4)csc3c2)cc1 [Example 13, 3-[6-(4-fluorophenyl)benzo[b]thiophen-3-yl]pyridine hydrochloride]",93,–
"Fc1cccc(-c2ccc3c(-c4cccnc4)csc3c2)c1 [Example 14, 3-[6-(3-fluorophenyl)benzo[b]thiophen-3-yl]pyridine]",91,–
"c1ccc(-c2ccc3c(-c4cccnc4)csc3c2)cc1 [Example 15, 3-(6-phenylbenzo[b]thiophen-3-yl)pyridine]",93,–
"COc1cccc(-c2ccc3c(-c4cccnc4)csc3c2)c1 [Example 16, 3-[6-(3-methoxyphenyl)benzo[b]thiophen-3-yl]pyridine hydrochloride]",73,–
"COc1ccc(-c2ccc3c(-c4cccnc4)csc3c2)cc1 [Example 18, 3-[6-(4-methoxyphenyl)benzo[b]thiophen-3-yl]pyridine]",37,–
"Oc1ccc(-c2ccc3c(-c4cccnc4)csc3c2)cc1 [Example 19, 4-[3-(3-pyridyl)benzo[b]thiophen-6-yl]-phenol]",68,–
"COc1ccc(-c2ccc3c(-c4cccnc4)csc3c2)cc1OC [Example 21, 3-[6-(3,4-dimethoxyphenyl)benzo[b]thiophen-3-yl]pyridine]",30,–
"Oc1ccc(-c2ccc3c(-c4cccnc4)csc3c2)cc1O [Example 22, 4-[3-(3-pyridyl)benzo[b]thiophen-6-yl]benzene-1,2-diol]",73,–
"Nc1cccc(-c2ccc3c(-c4cccnc4)csc3c2)c1 [Example 23, 3-[3-(3-pyridyl)benzo[b]thiophen-6-yl]phenylamine]",100,–
"c1cncc(-c2csc3cc(OC4CCCC4)ccc23)c1 [Example 25, 3-(6-cyclopentyloxybenzo[b]thiophen-3-yl)pyridine hydrochloride]",76,–
"COc1cccc(Oc2ccc3c(-c4cccnc4)csc3c2)c1 [Example 26, 3-[6-(3-methoxyphenoxy)benzo[b]thiophen-3-yl]pyridine hydrochloride]",1,–
"Cc1ccc2c(-c3cccnc3)csc2c1 [Example 27, 3-(6-methylbenzo[b]thiophen-3-yl)pyridine hydrochloride]",56,–
"Brc1ccc2c(-c3cccnc3)csc2c1 [Example 28, 3-(6-bromobenzo[b]thiophen-3-yl)pyridine hydrochloride]",42,–
"Brc1cccc2scc(-c3cccnc3)c12 [Example 29, 3-(4-bromobenzo[b]thiophen-3-yl)pyridine hydrochloride]",25,–
"c1cncc(-c2csc3cc(OC4CCC4)ccc23)c1 [Example 30, 3-(6-cyclobutyloxybenzo[b]thiophen-3-yl) pyridine hydrochloride]",100,–
"c1cncc(-c2csc3cc(-c4ccsc4)ccc23)c1 [Example 31, 3-[6-(3-thienyl)benzo[b]thiophen-3-yl]pyridine hydrochloride]",100,–
"c1cncc(-c2csc3cc(-c4ccoc4)ccc23)c1 [Example 32, 3-[6-(3-furyl)benzo[b]thiophen-3-yl]pyridine hydrochloride]",100,–
"c1cncc(-c2csc3cc(-c4cccs4)ccc23)c1 [Example 33, 3-[6-(2-thienyl)benzo[b]thiophen-3-yl]pyridine hydrochloride]",100,–
"c1cncc(-c2csc3cc(-c4ccco4)ccc23)c1 [Example 34, 3-[6-(2-furyl)benzo[b]thiophen-3-yl]pyridine hydrochloride]",100,–
"CCCCCCOc1ccc2c(-c3cccnc3)csc2c1 [Example 35, 3-(6-hexyloxybenzo[b]thiophen-3-yl)pyridine hydrochloride]",61,–
"CCCCCOc1ccc2c(-c3cccnc3)csc2c1 [Example 36, 3-(6-amyloxybenzo[b]thiophen-3-yl)pyridine hydrochloride]",60,–
"CCCCOc1ccc2c(-c3cccnc3)csc2c1 [Example 37, 3-(6-butyloxybenzo[b]thiophen-3-yl)pyridine hydrochloride]",80,–
"Cl.FC(F)(F)c1ccccc1-c1ccc2c(-c3cccnc3)csc2c1 [Example 48, 3-{[6-(2-trifluoromethyl)phenyl]benzo[b]thiophen-3-yl}pyridine hydrochloride]",–,54

# Second part, the compound after the results:
inhibition at 0.3 µM [%],Inhibitory activity (%),SMILES
45,–,"CC(=O)c1ccccc1-c1ccc2c(-c3cccnc3)csc2c1 [Example 38, 1-{2-[3-(3-pyridyl)benzo[b]thiophen-6-yl]phenyl}-1-ethanone hydrochloride]"
64,–,"CC(=O)c1cccc(-c2ccc3c(-c4cccnc4)csc3c2)c1 [Example 39, 1-{3-[3-(3-pyridyl)benzo[b]thiophen-6-yl]phenyl}-1-ethanone]"
79,–,"CC(C)COc1ccc2c(-c3cccnc3)csc2c1 [Example 40, 3-(6-isobutyloxybenzo[b]thiophen-3-yl) pyridine hydrochloride]"
95,–,"CCCOc1ccc2c(-c3cccnc3)csc2c1 [Example 41, 3-(6-propyloxybenzo[b]thiophen-3-yl)pyridine hydrochloride]"
57,–,"c1cncc(-c2csc3cc(-c4ccc5c(c4)OCO5)ccc23)c1 [Example 42, 3-[6-(1,3-benzodioxol-5-yl)benzo[b]thiophen-3-yl]pyridine hydrochloride]"
97,–,"CCOc1ccc2c(-c3cccnc3)csc2c1 [Example 43, 3-(6-ethyloxybenzo[b]thiophen-3-yl)pyridine hydrochloride]"
46,–,"CC(=O)c1ccc(-c2ccc3c(-c4cccnc4)csc3c2)cc1 [Example 44, 1-{4-[3-(3-pyridyl)benzo[b]thiophen-6-yl]phenyl}-1-ethanone]"
33,–,"CN(C)CCOc1ccc2c(-c3cccnc3)csc2c1 [Example 45, 3-[6-(N,N-dimethyl-2-aminoethyloxy)benzo[b]thiophen-3-yl]pyridine dimaleate]"
100,–,"CC(C)Cc1ccc2c(-c3cccnc3)csc2c1 [Example 46, 3-(6-isobutylbenzo[b]thiophen-3-yl)pyridine hydrochloride]"
53,–,"CSc1ccc(-c2ccc3c(-c4cccnc4)csc3c2)cc1 [Example 47, 3-[6-(4-methylthiophenyl)benzo[b]thiophen-3-yl]pyridine hydrochloride]"
67,–,"CC(C)Nc1cccc(-c2ccc3c(-c4cccnc4)csc3c2)c1 [Example 49, isopropyl {3-[3-(3-pyridyl)benzo[b]thiophen-6-yl]phenyl}amine]"
80,–,"c1cncc(-c2csc3cc(C4CCCCC4)ccc23)c1 [Example 50, 3-(6-cyclohexylbenzo[b]thiophen-3-yl)pyridine hydrochloride]"
37,–,"CC(C)Oc1cccc(-c2ccc3c(-c4cccnc4)csc3c2)c1 [Example 51, 3-[6-(3-isopropyloxyphenyl)benzo[b]thiophen-3-yl]pyridine hydrochloride]"
93,–,"CCCc1ccc2c(-c3cccnc3)csc2c1 [Example 52, 3-(6-propylbenzo[b]thiophen-3-yl)pyridine hydrochloride]"

# From US20030130340A1, “Novel benzothiophene derivatives” (Daiichi Pharmaceutical Co. Ltd., priority 2000, published 2003)
